Measurements published in patent US7132443B2, “Fluoropyrrolidines as dipeptidyl peptidase inhibitors” (SmithKlineBeecham Corporation, priority 2001, dated 2006).
Structures can show the parent of a compound that is named as a salt. Where two headings read alike, the source gives them in different places.

Legend:
DPP-IV activity in serum [1] = target: T1, DPP-IV activity in serum (Rattus norvegicus, UniProt P14740); test: DPP-IV activity in serum of rats 6 hrs after oral dosing; format: in vivo; conditions: for inhibition at 1 mg/kg: rat, read-out: Percent DPP-IV inhibition At 6 hrs In Rats; for duration of action: rats, 6 hrs after 1 mg/kg oral
T1 construct: from tissue; host or cells: serum/plasma of male CD rats dosed orally
T1 sequence (P14740 37-767 limits assumed): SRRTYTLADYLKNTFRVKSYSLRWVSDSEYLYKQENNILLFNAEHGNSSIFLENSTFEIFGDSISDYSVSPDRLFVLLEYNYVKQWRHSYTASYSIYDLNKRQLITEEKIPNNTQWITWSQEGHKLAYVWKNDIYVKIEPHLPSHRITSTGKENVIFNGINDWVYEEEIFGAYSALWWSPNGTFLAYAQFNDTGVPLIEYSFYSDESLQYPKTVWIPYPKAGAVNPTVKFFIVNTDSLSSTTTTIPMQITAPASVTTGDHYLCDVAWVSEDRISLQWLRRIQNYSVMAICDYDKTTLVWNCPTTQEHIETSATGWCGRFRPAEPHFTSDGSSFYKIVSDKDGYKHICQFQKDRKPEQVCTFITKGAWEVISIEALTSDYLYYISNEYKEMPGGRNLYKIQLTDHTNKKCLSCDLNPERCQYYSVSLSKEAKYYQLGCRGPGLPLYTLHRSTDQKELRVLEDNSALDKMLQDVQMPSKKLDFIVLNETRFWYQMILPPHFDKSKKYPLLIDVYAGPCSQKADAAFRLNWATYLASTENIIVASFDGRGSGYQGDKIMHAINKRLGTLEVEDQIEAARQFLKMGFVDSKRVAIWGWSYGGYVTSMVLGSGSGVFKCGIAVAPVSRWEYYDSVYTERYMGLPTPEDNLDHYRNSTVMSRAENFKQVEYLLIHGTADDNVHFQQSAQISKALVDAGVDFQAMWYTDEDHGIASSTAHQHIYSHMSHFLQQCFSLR
Description: Age and weight matched male CD rats were housed individually at 72° F. and 50% relative humidity with a 12 h light/dark cycle. Animals were dosed by oral gavage with vehicle (10 mM acetic acid) or 1 mg/kg test compound in vehicle. After 6 hrs administration of compound, the rats were anesthetized with isofluorane for cardiac blood collection. DPP-IV activity in serum was measured using the fluorogenic substrate Gly-Pro-AMC (50 mM) according to the manufacturers specification (Enzyme System Products, Livermore Calif.). The substrate was mixed with 50 mM Tris, pH 7.8, in plasma (20% final v/v) and the samples were incubated for 5–20 min at 30° C. DPP-IV activity was determined by measuring fluorescence using a cytofluor spectrofluoremeter with the filters set at 360 nm excitation and 460 nm emission. Averages and standard deviations from each group (n=3) were calculated using students t-test and compared to vehicle treated rats to determine percent inhibition as shown in Table 1.

human DPP-IV = target: T2, human DPP-IV (Homo sapiens, UniProt P27487); test: DPP-IV assay (H-Ala-Pro-pNA hydrolysis, absorbance); format: biochemical
T2 construct: The material was isolated from human prostasomes using the method of DeMeester et al; purchased Athens Research and Technology, Inc; host or cells: human prostasomes (natural source)
T2 sequence (P27487 whole entry): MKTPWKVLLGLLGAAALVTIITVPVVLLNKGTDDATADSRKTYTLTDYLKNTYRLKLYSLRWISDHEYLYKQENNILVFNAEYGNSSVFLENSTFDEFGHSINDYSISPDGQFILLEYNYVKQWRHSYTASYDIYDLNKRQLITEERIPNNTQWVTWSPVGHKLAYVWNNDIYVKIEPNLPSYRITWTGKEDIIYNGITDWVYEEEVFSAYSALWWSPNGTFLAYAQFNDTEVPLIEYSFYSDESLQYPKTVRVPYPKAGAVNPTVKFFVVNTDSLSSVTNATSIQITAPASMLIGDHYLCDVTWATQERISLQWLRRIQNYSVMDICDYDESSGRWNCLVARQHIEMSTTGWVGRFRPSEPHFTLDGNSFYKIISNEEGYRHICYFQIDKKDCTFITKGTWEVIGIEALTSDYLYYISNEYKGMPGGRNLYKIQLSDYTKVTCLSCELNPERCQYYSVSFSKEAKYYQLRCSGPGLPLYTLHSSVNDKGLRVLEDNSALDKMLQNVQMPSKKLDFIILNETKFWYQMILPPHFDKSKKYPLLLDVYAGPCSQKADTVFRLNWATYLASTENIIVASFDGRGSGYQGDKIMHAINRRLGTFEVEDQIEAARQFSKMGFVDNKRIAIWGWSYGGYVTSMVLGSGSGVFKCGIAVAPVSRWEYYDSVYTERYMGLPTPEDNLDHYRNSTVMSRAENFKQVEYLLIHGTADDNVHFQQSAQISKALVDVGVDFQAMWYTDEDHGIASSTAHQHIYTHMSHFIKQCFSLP
Description: A 500 mM stock solution was prepared with dimethylsulfoxide and stored at −20° C. Gly-Pro-AMC was purchased from Enzyme System Products (product no. AMC-39) and stored at −20° C. as a 10 mM stock solution in dimethylsulfoxide. Test compounds were dissolved to 10 mM in dimethylsulfoxide and this was used as a stock solution for DPP-IV titration assays. Athens Research and Technology, Inc prepared the purified human DPP-IV. The material was isolated from human prostasomes using the method of DeMeester et al., J. Immunol.
The average enzymatic activity from wells containing dimethylsulfoxide but lacking test compound was used as a control value for calculating percent inhibition. DPP-IV (20 ng/mL) was mixed in microtiter plates with test compounds, substrate and assay buffer to yield 100 μM H-Ala-Pro-pNA•HCl in 25 mM Tris, pH 7.5, 10 mM KCl, 140 mM NaCl. The intact peptide contains a p-nitrophenylanilide which, when hydrolyzed by DPP-IV, releases the absorbant p-nitrophenylaniline. […] The enzymatic activity was determined by estimating the best linear fit to the data. Values for enzymatic activity were taken directly from the linear fit determined by the software on the plate reader.
Data Analysis: The enzymatic activity was determined by estimating the best linear fit to the data. Data reduction was performed using the Microsoft Excel RoboSage.
Determination of Ki values: Ki values were calculated from IC50 values using equation 3 assuming a competitive model.

[2] = Stability studies in Phosphate Buffered Saline by HPLC (cyclization/degradation half-life); conditions: PBS; for half-life: Phosphate Buffered Saline
Description: (§1) An initial time point HPLC chromatogram is obtained followed by successive HPLC chromatograms at time points of 24, 48, 72, etc hours.
(§2) The area under the drug substance peak is compared to the initial area for each chromatogram and plotted as percent remaining from initial time (t0).

physchem = conditions: buffer, t1/2 at 37° C.
Description: as §1, §2

dogs = test: Dose escalation studies in dogs, limiting gastrointestinal toxicity; format: in vivo
Description: The dog is a common non-rodent species routinely used to satisfy regulatory requirements. The beagle was chosen to examine the safety of the compounds of the present invention because of the knowledge of this strain's general pathology and response to a wide variety of drugs. Dogs (Marshall Farms Inc., North Rose, N.Y., USA) from 9 to 12 months (5 to 12 kg) were dosed by oral gavage at 10 mL/kg/day with vehicle (10 mM acetic acid, pH 3.3) or test compound in vehicle. Each dose was followed by a flush of approximately 10 mL of water, once daily with 24–48 hours between each subsequent dose. If limiting gastrointestinal toxicity was not observed, the dose was increased 3-fold no sooner than approximately 24 hours after the preceding dose. Limiting GI toxicity includes diarrhea, loose or mucoid feces, blood in stool, and/or sloughing of the gut epithelium. Clinical observations were made at least three times daily during treatment (once prior to dosing, approximately one hour post dose, and once in conjunction with pm viability). DPP-IV activity in serum was measured using the fluorogenic substrate Gly-Pro-AMC (50 mM) according to the manufacturers specification (Enzyme System Products, Livermore Calif.). […] DPP-IV activity was determined by measuring fluorescence using a cytofluor spectrofluoremeter with the filters set at 360 nm excitation and 460 nm emission.

DPP-IV activity in serum [3] = target: T3, DPP-IV activity in serum (Canis lupus familiaris, UniProt A0A8I3Q2I8); test: DPP-IV activity in serum of dogs after oral dosing; format: in vivo; conditions: dog, read-out: inhibited DPP4 12 hours after oral dosing
T3 construct: The substrate was mixed with 50 mM Tris, pH 7.8, in serum (20% final v/v); from tissue; host or cells: serum of beagle dogs dosed orally
T3 sequence (A0A8I3Q2I8 1-765): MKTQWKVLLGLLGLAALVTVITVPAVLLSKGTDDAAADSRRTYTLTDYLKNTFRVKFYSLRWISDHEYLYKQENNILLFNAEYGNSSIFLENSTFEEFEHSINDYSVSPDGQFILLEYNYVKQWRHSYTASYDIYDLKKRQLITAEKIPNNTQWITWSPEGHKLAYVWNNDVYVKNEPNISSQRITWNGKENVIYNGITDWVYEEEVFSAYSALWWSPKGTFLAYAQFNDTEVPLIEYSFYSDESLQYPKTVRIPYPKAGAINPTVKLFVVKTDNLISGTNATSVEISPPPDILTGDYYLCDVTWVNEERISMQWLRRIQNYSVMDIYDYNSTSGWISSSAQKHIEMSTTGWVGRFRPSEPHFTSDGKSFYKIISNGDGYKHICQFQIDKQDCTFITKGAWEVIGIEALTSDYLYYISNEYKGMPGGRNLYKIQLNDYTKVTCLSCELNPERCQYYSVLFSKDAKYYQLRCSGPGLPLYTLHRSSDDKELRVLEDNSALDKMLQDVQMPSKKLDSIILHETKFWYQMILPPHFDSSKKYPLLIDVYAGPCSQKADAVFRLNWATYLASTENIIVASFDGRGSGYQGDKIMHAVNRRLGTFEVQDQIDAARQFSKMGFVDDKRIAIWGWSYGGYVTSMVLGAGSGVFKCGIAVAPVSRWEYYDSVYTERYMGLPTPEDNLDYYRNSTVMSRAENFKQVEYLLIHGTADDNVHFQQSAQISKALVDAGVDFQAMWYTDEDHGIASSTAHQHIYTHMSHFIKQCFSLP

[4] = Table I, read-out: IC50 (nM) Human DPP-IV
[5] = human DPP-IV, text b860, read-out: IC50 values

With CC(C)[C@H](N)C(=O)N1C[C@@H](F)C[C@H]1C#N [Comparison Example 1] the inhibition at 1 mg/kg (DPP-IV activity in serum [1]; po) was 32 ± 3%, the duration of action (DPP-IV activity in serum [1]) was “poor level of duration” and the IC50 (human DPP-IV; [4]) was 1.3 nM. For the same molecule, the IC50 (human DPP-IV; [5]) was < 5.6 nM.
In the case of COc1ccc(CS(=O)(=O)C(C)(C)[C@H](N)C(=O)N2C[C@@H](F)C[C@H]2C#N)cc1 [Example 9, (2S,4S)-1-{(2R)-2-Amino-3-[(4-methoxybenzyl)sulfonyl]-3-methylbutanoyl}-4-fluoropyrrolidine-2-carbonitrile hydrochloride], the “t1/2 at 37° C.” value ([2]; 37° C.) is reported as 1733 h.
With N#C[C@@H]1C[C@H](F)CN1C(=O)[C@@H](N)C(c1ccc(F)cc1)c1ccc(F)cc1 [Example 2, (2S,4S)-1-[(2S)-2-Amino-3,3-bis(4-fluorophenyl)propanoyl]-4-fluoropyrrolidine-2-carbonitrile hydrochloride] the inhibition at 1 mg/kg (DPP-IV activity in serum [1]; 1 mg/kg oral gavage, male CD rats, serum, 6 hrs, vs vehicle) was 68 ± 4%, the half-life (physchem) was 266 h and the “gastrointestinal toxicity, dose escalation in dogs” value (dogs; dog, in vivo) was “no adverse affects on gastrointestinal toxicity”. The inhibition at 0.5 mg/kg (DPP-IV activity in serum [3]; dogs, 0.5 mg/kg oral, 12 hours, serum) was 45%.
With N#C[C@@H]1CCCN1C(=O)[C@@H](N)C(c1ccc(F)cc1)c1ccc(F)cc1 [Comparison Example 6] the “% DPP-IV Inhibition @ 6 Hrs. In Rats” value (DPP-IV activity in serum [1]; Table 3, rats, 6 Hrs.) was 15 ± 1%.
Work on CC[C@H](C)[C@H](N)C(=O)N1C[C@@H](F)C[C@H]1C#N [Comparison Example 3] yielded a half-life ([2]; t1/2 at 23° C., ambient room temperature 23° C.) of 47 h and a half-life ([2]; t1/2 at 37° C. (calc.), calculated for 37° C. from value measured at 23° C.) of 23 h.
For CC(C)(C)[C@H](N)C(=O)N1C[C@@H](F)C[C@H]1C#N [Comparison Example 5], the inhibition at 1 mg/kg (DPP-IV activity in serum [1]; po) was 71 ± 13%, the IC50 (human DPP-IV; [4]) was 3 nM and the “gastrointestinal toxicity, dose escalation in dogs” value (dogs; 0.3 mg/kg oral gavage) was “loose/mucoid feces with traces of blood”. The inhibition at 0.2 mg/kg (DPP-IV activity in serum [3]; po) was 2%.
In the case of N#C[C@@H]1C[C@H](F)CN1C(=O)[C@@H](N)CCC(=O)O [Comparison Example 2], the inhibition at 1 mg/kg (DPP-IV activity in serum [1]; po) is reported as 32 ± 3%, the duration of action (DPP-IV activity in serum [1]) is reported as “poor level of duration” and the IC50 (human DPP-IV; [4]) is reported as 3 nM. The IC50 (human DPP-IV; [5]) was < 5.6 nM.
